Reference: US9018370B2, “Derivatives of uridine phosphate and their uses in protein binding assays” (King's College London of Strand, priority 2009, dated 2015)
Each block holds one compound with its values, some of them ahead of it.

Experiments:
[1] = Lakowicz, Principles of Fluorescence Spectroscopy; cited from earlier work
[2] = Quantum yield determination of nucleotide derivatives; format: physicochemical; details: for Quantum yield of reference compounds determined with this protocol: in H2O; for Q.Y.: in water
Protocol: Nucleotide derivatives were serially diluted in H2O (10, 20, 30, 40 and 50 μM for absorbance measurements, and 0.2, 0.4, 0.6, 0.8, 1 μM for fluorescence measurements), and UV absorbance and fluorescence emission (with λmax absorbance=λem fluorescence) were recorded for all samples. To determine quantum yields, for each absorbance and fluorescence spectrum the area under the curve (AUC) was calculated by numerical integration, applying the mid-point rule. For each compound, AUCabs and AUCem were then plotted over compound concentration according to AUCabs=A×[conc]+B and AUCem=A′×[conc]+B′. From these linear plots, the gradients A and A′ were extracted, and for each compound the specific quantum yield φs, under these experimental conditions, was calculated as the ratio A′/A. Quantum yields determined with this protocol for two reference compounds, 2-aminopyridine and L-tryptophan (2-aminopyridine: 0.60; L-tryptophan: 0.14) were in exact agreement with literature values. The quantum yields for reference compounds were used to calculate the general quantum yield φg for each nucleotide analogue, according to φg=φref×(A′/A)/(A′/A)ref.
Fluorescent uracil nucleosides and (sugar-)nucleotides can be obtained by connecting a known chromophore/fluorophore via an electronically nonconjugating linker to the natural uracil base (Sinkeldam et al. Chem. Rev. 2010, 110, 2579-2619). The photophysical features of the resulting nucleoside/(sugar-)nucleotide analogue are usually very similar to that of the parent fluorophore (Sinkeldam et al. Chem. Rev. 2010, 110, 2579-2619). In contrast, extending the uracil by electronically conjugating the base to additional aromatic moieties typically generates a new chromophore with unique, and somewhat unpredictable, photophysical characteristics (Sinkeldam et al. Chem. Rev. 2010, 110, 2579-2619). To precisely measure the intensity of the fluorescence emitted by the brightest fluorophores described above, we determined their quantum yield. These measurements were performed in water following the procedure reported by Nighswander-Remper and the results are shown in Table B below. Quantum yield determinations confirmed that 2p and 2q display the highest fluorescence and are 10-fold brighter than any other nucleotide analogues with a compact aryl- or heteroaryl substituent in position 5 that have been reported to date (Sinkeldam et al. Chem. Rev. 2010, 110, 2579-2619). That 2p and 2q absorb and fluoresce at long wavelength is an attractive feature, which makes these fluorophores suitable for analyses in biological environments. Additionally, we found the intensity of the fluorescence emission is conserved for UDP and UTP analogues, thereby providing attractive fluorescence probes candidates for fluorimetric assays.

[3] = test system: a-1.4-GalT; experiment: Titration of C-glycosidic fluorophore 2 with GalT and competition with ligands; format: binding
[4] = molecular target: T1, Streptococcus thermophilus UDP-Gal 4′-epimerase (GalE) (Streptococcus thermophilus, UniProt P21977); experiment: GalE-catalysed conversion of UDP-Gal into UDP-Glc, HPLC assay; format: biochemical
T1 construct: purchased Calbiochem
T1 sequence (P21977 whole entry): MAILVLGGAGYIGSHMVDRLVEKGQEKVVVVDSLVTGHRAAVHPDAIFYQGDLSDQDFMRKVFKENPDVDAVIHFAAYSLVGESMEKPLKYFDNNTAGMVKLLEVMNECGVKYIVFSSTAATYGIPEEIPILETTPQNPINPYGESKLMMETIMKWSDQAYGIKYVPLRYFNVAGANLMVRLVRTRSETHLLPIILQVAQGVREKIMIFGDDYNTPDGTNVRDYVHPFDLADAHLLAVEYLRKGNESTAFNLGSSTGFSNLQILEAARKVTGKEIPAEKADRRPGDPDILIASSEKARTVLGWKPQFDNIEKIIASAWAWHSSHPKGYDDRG
Protocol: The reactions were stopped by cooling in dry ice. […] Km and vmax values were determined by fitting data points to a Michaelis-Menten curve using GraFit 5.0.10. […] All experiments were carried out in triplicate.

[5] = molecular target: T2, Ggta1 (Bos taurus, UniProt P14769); experiment: Variation in fluorescence of 3d and analogues upon incubation with Ggta1; format: binding, B. taurus; details: various concentrations of Ggta1
T2 construct: made in house
T2 sequence (P14769 whole entry): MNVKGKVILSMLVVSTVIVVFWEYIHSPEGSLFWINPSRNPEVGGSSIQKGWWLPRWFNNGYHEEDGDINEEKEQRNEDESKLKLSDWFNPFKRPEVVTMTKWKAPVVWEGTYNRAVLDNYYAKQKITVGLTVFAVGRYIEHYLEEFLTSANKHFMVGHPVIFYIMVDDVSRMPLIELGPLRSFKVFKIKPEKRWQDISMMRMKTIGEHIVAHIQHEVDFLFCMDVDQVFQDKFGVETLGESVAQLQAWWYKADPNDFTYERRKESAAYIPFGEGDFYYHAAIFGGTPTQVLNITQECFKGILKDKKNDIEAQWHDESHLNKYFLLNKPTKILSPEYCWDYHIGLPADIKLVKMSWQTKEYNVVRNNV
Protocol: (§1) Fluorescence intensity measurements with 3d were carried out in black NUNC F96 MicroWell polystyrene plates on a BMG labtech PolarStar microplate reader equipped with a 350±5 nm excitation filter and a 430±5 nm emission filter. The number of flashes per wells was set to 50 (gain: 2240; position delay: 0.2 s). Prior to readings, plates were incubated, with shaking, for 10 min at 30° C. (double orbital, shaking width 4 mm, 10 seconds). Results were visualised with BMG labtech data analysis software Mars 1.10 and analysed with GraFit version 5.0.10.
(§2) Samples were pipetted into the requisite wells of a black NUNC 96-well plate as shown in tables E1-E3, at the end of the description. Key: B—Tris/HCl buffer (50 mM, pH 7; 40 μL); F—fluorophore 3d (200 nM in Tris/HCl buffer; 40 μL); M—MnCl2 (10 mM in Tris/HCl buffer; […]); E—galactosyltransferase (in Tris/HCl buffer; 40 μL); I—inhibitor (in Tris/HCl buffer; 40 μL). Total volume/well: 200 μL. All experiments were carried out in triplicate, unless indicated otherwise.
We also carried out an experiment on 3d (numbered 18e in FIG. 4) and different analogues of 3d, namely the nucleoside 5h, the nucleotide 6r and nucleoside diphosphate 22d, to show their variation in fluorescence on binding to Ggta1.
The synthesis of 5h, 6r and 22d are shown below. The protocol for the microplate/fluorescence experiments was the same as in Example 2.

[6] = Absorbance and fluorescence spectra of 5-R-UMP analogues; format: physicochemical; details: for λmax: absorbance
Protocol: UV absorbance spectra were recorded on a PerkinElmer Lambda 25 UV-Vis spectrometer at ambient temperature in FarUV quartz cells (path length 1.0 cm). Fluorescence spectra were recorded on a PerkinElmer LS-45 spectrometer at ambient temperature in a quartz micro fluorescence cell (path length 1.0 cm).

[7] = Influence of microenvironment (solvent) on fluorescence of 2q′; format: physicochemical
Protocol: Fluorescence intensity measurements were performed in NUNC F96 MicroWell polystyrene plates on a BMG labtech PolarStar plate reader equipped with a 350±5 nm absorbance filter and with a 430±5 nm emission filter. 10 μM solutions of 2q′ were prepared in HPLC grade water, acetonitrile and isopropanol. Sample assays with various solvent mixtures were incubated during 2 minutes at 30° C. prior to fluorescence measurement. Data were analysed with the help of GraFit version 5.0.10.
After identifying intense 5-arylated UMP fluorophores and understanding the origin of their fluorescence we investigated the influence of the microenvironment on the fluorescence signal. In order to generate a variety of microenvironments, we prepared 200 nM solutions of 5-(5-formyl-2-thiophene)-uridine 2q′ (the nucleoside analogue of 2q) in solvents varying in polarity index: (P): water (P=9), acetonitrile (MeCN, P=5.8) and isopropanol (IPA, P=3.9). We subsequently recorded absorbance and fluorescence signals for these three solutions (see FIG. 6).

[8] = molecular target: T3, B. taurus α-1,3-GalT (Bos taurus, UniProt P14769); experiment: Microplate fluorescence titration / ligand-displacement assay with fluorophore 3d; format: binding; details: 3d and α-1.3-GalT present
T3 construct: made in house
T3 sequence (P14769 whole entry): as above
Protocol: The fluorescence emission of a given fluorophore is influenced by its microenvironment, although different fluorophores vary their fluorescence emissions to different extents on changing microenvironment.
as §1, §2

SMILES: N[C@@H](Cc1c[nH]c2ccccc12)C(=O)O [L-tryptophan, reference compound]
Quantum yield, literature values of reference compounds [1]: 0.14
Quantum yield of reference compounds determined with this protocol [2]: 0.14

SMILES: O=Cc1ccc(-c2cn([C@@H]3O[C@H](COP(=O)(O)OP(=O)(O)CC[C@H]4O[C@H](CO)[C@H](O)[C@H](O)[C@H]4O)[C@@H](O)[C@H]3O)c(=O)[nH]c2=O)s1 [compound 2, Bis(sodium) [2-(α-D-galactopyranosyl)-ethylphosphono]-5-(5-formylthien-2-yl)uridin-5′-yl phosphate]
Fluorescence of 2 upon titration with GalT [3]: quenched upon titration with a bacterial GalT
Ki ([4]; Dixon plot, 232 μM UDP-Gal): 426 µM
Use as substrate by GalE ([4]; co-incubation, HPLC): does not use 2 as a substrate

Fluo Intensity at 100 μM ([6]; 100 μM): >650 a.u.
λmax [6]: 351 nm
Emmax ([6]; fluorescence emission): 434 nm
Brightness relative to any other reported 5-aryl/heteroaryl nucleotide analogues [2]: 10 fold
Q.Y. [2]: 0.26
SMILES: O=Cc1ccc(-c2cn([C@@H]3O[C@H](COP(=O)(O)O)[C@@H](O)[C@H]3O)c(=O)[nH]c2=O)s1 [2q, 5-(5-Formylthien-2-yl)-uridine-5′-monophosphate]
Variation in fluorescence on binding to Ggta1 [5]: varied their intensity of luminescence with Ggta1

Fluorescence in water relative to MeCN ([7]; 200 nM solutions): 20 fold
SMILES: O=Cc1ccc(-c2cn([C@@H]3O[C@H](CO)[C@@H](O)[C@H]3O)c(=O)[nH]c2=O)s1 [2q′, 5-(5-Formylthien-2-yl)-uridine]
Absorbance on change of solvent ([7]; water, MeCN, IPA): unaffected by a change in microenvironment

SMILES: O=c1ccn([C@@H]2O[C@H](COP(=O)(O)OP(=O)(O)O)[C@@H](O)[C@H]2O)c(=O)[nH]1 [UDP, reference compound]
Reversal of fluorescence quenching of 2 by titration with ligand [3]: reversed
Fluorescence of 3d upon titration with competitive ligand [8]: restored

SMILES: Nc1ccccn1 [2-aminopyridine, reference compound]
Quantum yield, literature values of reference compounds [1]: 0.60
Quantum yield of reference compounds determined with this protocol [2]: 0.60

SMILES: O=c1ccn([C@@H]2O[C@H](COP(=O)(O)O)[C@@H](O)[C@H]2O)c(=O)[nH]1 [UMP, reference compound]
Reversal of fluorescence quenching of 2 by titration with ligand [3]: to a lesser extent
λmax [6]: 262 nm
Q.Y. [2]: 5e-05
